# Measurements taken from paper PMC11833175, “Synthesis, characterization, antimicrobial, cytotoxic and carbonic anhydrase inhibition activities of multifunctional pyrazolo-1,2-benzothiazine acetamides” (Beilstein Journal of Organic Chemistry, 2025).
# Where two headings read alike, the source gives them in different places.
# Tests used:
# [1] = tested on: Candida albicans (ATCC 90027); assay: Microbroth single-dose antimicrobial assay, C. albicans; format: cell-based; conditions: C. albicans ATCC 90027, value (SD); for percent survival at 125 µg/mL: ATCC90027, single dose 125 μg/mL
# Method: (§1) Microbroth single dose antimicrobial assays were performed against different pathogens including susceptible Staphylococcus aureus (ATCC 25923), Escherichia coli (ATCC 8739), and Candida albicans (ATCC 90027). Pathogens were treated with 125 μg/mL of tested compounds in duplicate.
# (§2) The antimicrobial evaluation of the targeted compounds was carried out against five different pathogens including Staphylococcus aureus (susceptible, ATCC 25923; methicillin-resistant, ATCC BAA-41; multidrug-resistant, ATCC BAA-44), Escherichia coli ATCC 8739, and Candida albicans ATCC 90027. Reference antibiotics and final concentrations used as positive controls in these experiments were kanamycin (susceptible S. aureus, 50 μg), vancomycin (methicillin and multidrug-resistant S. aureus, 25 μg), ampicillin (E. coli, 50 μg), and amphotericin B (C. albicans, 25 μg). The final concentration of the tested compounds was 125 μg/mL for microbroth single-dose assays. Dimethyl sulfoxide was used at a final concentration of 0.1% as negative control. […] American type culture collection (ATCC, Manassas, VA, USA) has provided all microbial strains used in above experiments.
# (§3) Antimicrobial Single-dose assay for compounds 7(a-n) against
# (§4) S. aureus E. coli C. albicans
# (§5) Figure S43: Graph showing results of antimicrobial single-dose microbroth assays of compounds 7a–n, dose of tested compounds = 125 μg/mL, control antibiotic s used: kanamycin = 50 μg/mL (Staphylococcus aureus ATCC 25923), ampicillin = 50 μg/mL (Escherichia coli ATCC 8739), and amphotericin B = 25 μg/mL (Candida albicans ATCC 90027). Dimethylsulfoxide ( DMSO) was used as the negative control at 1.25% […]
# (§6) Table S1: Results of single-dose antimicrobial and cytotoxic assays for compounds 7a–n; dosage of tested compounds = 125 μg/mL; antibiotic control dosage (kanamycin = 50 μg/mL (Staphylococcus aureus ATCC 25923), ampicillin = 50 μg/mL (Escherichia coli ATCC 8739), and amphotericin B = 25 μg/mL (Candida albicans ATCC 90027).
# (§7) For cytotoxic assays, dosage of tested compounds = 10 μM; dosage of mensacarcin […]
# (§8) Percent survival / % Cell viability
# (§9) Samples S. aureus E.coli (SD) C. albicans (SD) HCT-116 […]
# [2] = tested on: Escherichia coli (ATCC 8739); assay: Microbroth single-dose antimicrobial assay, E. coli; format: cell-based; conditions: E. coli ATCC 8739, value (SD); for percent survival at 125 µg/mL: ATCC8739, single dose 125 μg/mL
# Method: as §1, §2, §3, §4, §5, §6, §7, §8, §9
# [3] = target: human carbonic anhydrase CA IX (Homo sapiens, UniProt Q16790); assay: hCA inhibition, stopped-flow CO2 hydration method, CA IX; conditions: mean from three assays, errors ±5–10%
# Method: (§15) In vitro assessment of all targeted pyrazolobenzothiazine scaffolds for human carbonic anhydrase (hCA) inhibition was performed adopting a stopped-flow CO2 hydration method. The enzyme inhibition assays were carried out for four types of human CA isoforms: CA I, CA II, CA IX, and XII. […] Reason for the selection of these CA isoforms was to develop a comparative relationship for inhibition selectivity between CAs (IX, XII) attributed to tumour/cancer and other CAs (I, II). […] Analyses were carried out in-house using recombinant enzymes as described.
# [4] = target: human carbonic anhydrase CA II (Homo sapiens, UniProt P00918); assay: hCA inhibition, stopped-flow CO2 hydration method, CA II; conditions: mean from three assays, errors ±5–10%
# Method: as §15
# [5] = target: human carbonic anhydrase CA I (Homo sapiens, UniProt P00915); assay: hCA inhibition, stopped-flow CO2 hydration method, CA I
# Method: as §15
# [6] = target: human carbonic anhydrase CA XII (Homo sapiens, UniProt O43570); assay: hCA inhibition, stopped-flow CO2 hydration method, CA XII; conditions: mean from three assays, errors ±5–10%
# Method: as §15
# [7] = tested on: methicillin-resistant S. aureus (ATCC BAA-41); assay: Microbroth dilution assay (MIC90), methicillin-resistant S. aureus; format: cell-based, Staphylococcus aureus; conditions: methicillin-resistant S. aureus ATCC BAA-41, 90% growth inhibition; for MIC90: Staphylococcus aureus, ATCC BAA-41 / MRSA, read-out: MIC90 MRSA
# Method: (§10) Microbroth dilution assays were performed for the determination of MIC (minimum inhibitory concentration, MIC90) values for compounds 7b and 7h against three different strains of Staphylococcus aureus: susceptible (ATCC 25923), methicillin-resistant (ATCC BAA-41), and multidrug-resistant (ATCC BAA-44).
# as §2
# [8] = tested on: Staphylococcus aureus (ATCC 25923); assay: Microbroth single-dose antimicrobial assay, susceptible S. aureus; format: cell-based; conditions: single dose 125 μg/mL; for percent survival of S. aureus at 125 µg/mL: Staphylococcus aureus, ATCC25923, S. aureus ATCC 25923, value (SD); for antibacterial activity against susceptible S. aureus (in words): duplicate
# Method: as §1, §2, §3, §4, §5, §6, §7, §8, §9
# [9] = tested on: multidrug-resistant S. aureus (ATCC BAA-44); assay: Microbroth dilution assay (MIC90), multidrug-resistant S. aureus; format: cell-based, Staphylococcus aureus; conditions: multidrug-resistant S. aureus ATCC BAA-44, 90% growth inhibition; for MIC90: Staphylococcus aureus, ATCCBAA44, read-out: MIC90 MDRSA
# Method: as §10, §2
# [10] = tested on: susceptible S. aureus (ATCC 25923); assay: Microbroth dilution assay (MIC90), susceptible S. aureus; format: cell-based, Staphylococcus aureus; conditions: for MIC90: Staphylococcus aureus, ATCC25923, 90% growth inhibition
# Method: as §10, §2
# [11] = tested on: human colon cancer cell line HCT-116 (ATCC CCL-247); assay: Single-dose MTT cell viability assay; format: cell-based; conditions: 10 μM
# Method: (§11) Single-dose MTT assays were performed for compounds 7a–n against the human colon cancer mammalian cell line (HCT-116, ATCC CCL-247) for evaluating their inhibition of mammalian cell metabolism. Solutions of the tested compounds were prepared in DMSO and cancer cells were treated with 10 μM doses of compounds using the apoptosis inducing standard mensacarcin (10 μM) as a positive control.
# (§12) Single-dose MTT assays were performed for compounds 7a–n with the human colon cancer mammalian cell line (HCT-116, ATCC CCL-247) for evaluating the compounds’ inhibitory effects on cell viability. Stock solutions of compounds were prepared in DMSO and cancer cells were treated with 10 μM doses of each compound and mensacarcin (10 μM) as a positive control. MTT in 1X PBS was added for a final concentration of 0.5 mg/mL 48 hours post compound addition to each well. Post incubation at 37 °C was carried out for 2 h. After the removal of the growth media, purple formazan metabolic product was dissolved in DMSO. A Biotek Synergy reader (96-well plate) was used to take absorbance of all samples at 550 nm. Cell viability was calculated as the ability of the metabolically active cells to reduce tetrazolium salt MTT [3-(4,5-dimethylthiazolyl-2)-2,5-diphenyltetrazolium bromide]. Control metabolic activity shown by cells treated with 0.1% DMSO was set to 100% cell growth. […]
# as §7, §8, §9
# (§13) HCT-116 (Human Colorn cancer cell line) Single -dose assay for […]
# (§14) Figure S44: Graph showing cell viability of compounds 7a–n against human colon carcinoma cell line (HCT-116, ATCC CCL-247), dose of tested compounds = 10 μM, dose of positive control (mensacarcin) = 10 μM.
# [12] = Single-dose MTT cell viability assay; format: cell-based, human; conditions: human, HCT-116 cells (ATCC CCL-247), 48 h, 0.1% DMSO control = 100%, value (SD)
# Method: as §11, §12, §7, §8, §9, §13, §14
# [13] = read-out: Ki for targeted CAs, IX
# [14] = read-out: Ki for targeted CAs, II
# [15] = read-out: Ki for targeted CAs, I, mean from three assays, errors ±5–10%
# [16] = read-out: Ki for targeted CAs, XII
# human carbonic anhydrase CA XII, sequence (O43570 25-354): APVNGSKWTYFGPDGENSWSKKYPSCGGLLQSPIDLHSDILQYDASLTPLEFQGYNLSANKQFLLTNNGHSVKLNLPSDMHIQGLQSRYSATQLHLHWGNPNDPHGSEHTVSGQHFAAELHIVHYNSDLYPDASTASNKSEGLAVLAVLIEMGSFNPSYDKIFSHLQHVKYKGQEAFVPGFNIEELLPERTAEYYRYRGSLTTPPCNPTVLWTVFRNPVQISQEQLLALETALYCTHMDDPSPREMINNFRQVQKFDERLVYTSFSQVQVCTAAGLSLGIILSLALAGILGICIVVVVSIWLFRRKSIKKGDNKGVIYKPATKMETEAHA
# human carbonic anhydrase CA I, sequence (P00915 whole entry): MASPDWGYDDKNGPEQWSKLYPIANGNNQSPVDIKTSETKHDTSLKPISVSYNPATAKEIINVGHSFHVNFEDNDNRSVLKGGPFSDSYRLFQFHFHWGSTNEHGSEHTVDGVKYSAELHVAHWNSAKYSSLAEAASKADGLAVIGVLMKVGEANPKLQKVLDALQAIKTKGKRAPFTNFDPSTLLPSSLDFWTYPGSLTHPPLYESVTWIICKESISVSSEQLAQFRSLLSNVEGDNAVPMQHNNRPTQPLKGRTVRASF
structure (smiles),measurement,setting,value
"C[C@@H]1[C@H](O)[C@@H](C)/C=C/C=C/C=C/C=C/C=C/C=C/C=C/[C@H](O[C@@H]2O[C@H](C)[C@@H](O)[C@H](N)[C@@H]2O)C[C@@H]2O[C@](O)(C[C@@H](O)C[C@@H](O)[C@H](O)CC[C@@H](O)C[C@@H](O)CC(=O)O[C@H]1C)C[C@H](O)[C@H]2C(=O)O [Amphotericin B, amphotericin B, reference compound]",percent survival at 25 µg/mL,"[1]; ATCC90027, antibiotic control 25 μg/mL",4.71%
"CC1(C)S[C@@H]2[C@H](NC(=O)[C@H](N)c3ccccc3)C(=O)N2[C@H]1C(=O)O [Ampicillin, ampicillin, reference compound]",percent survival at 50 µg/mL,"[2]; ATCC8739, antibiotic control 50 μg/mL",4.16%
CN1c2c(O)nn(CC(=O)Nc3ccc(Cl)cc3)c2-c2ccccc2S1(=O)=O [Compound 7a],Ki,[3]; [13],> 100 µM
same,Ki,[4]; [14],84.6 µM
same,Ki,[5]; [15],> 100 µM
same,Ki,[6]; [16],90.2 µM
CN1c2c(O)nn(CC(=O)Nc3cccc(Cl)c3)c2-c2ccccc2S1(=O)=O [Compound 7b],MIC90,[7],16 µg/mL
same,percent survival of S. aureus at 125 µg/mL,[8],37.2%
same,antibacterial activity against susceptible S. aureus (in words),[8],significant antibacterial activity
same,MIC90,[9],16 µg/mL
same,Ki,"[3]; Ki for targeted CAs, IX",72.9 µM
same,Ki,"[4]; Ki for targeted CAs, II",90.9 µM
same,MIC90,[10],16 µg/mL
same,percent survival at 125 µg/mL,[1],87%
same,effect on HCT-116 cell viability (in words),[11],no significant decrease in mammalian cell viability
same,"viability at 48 h, 10 µM",[12],88.9%
same,percent survival at 125 µg/mL,[2],95.3%
same,Ki,[5],> 100 µM
same,Ki,"[6]; Ki for targeted CAs, XII",77.4 µM
CN1c2c(O)nn(CC(=O)NCc3ccccc3)c2-c2ccccc2S1(=O)=O [Compound 7f],Ki,[3]; [13],> 100 µM
same,Ki,[4]; [14],90.3 µM
same,Ki,[5]; [15],> 100 µM
same,Ki,[6]; [16],79.1 µM
CN1c2c(O)nn(CC(=O)Nc3ccc(Br)cc3)c2-c2ccccc2S1(=O)=O [Compound 7h],MIC90,[7],8 µg/mL
same,MIC90 MRSA,[7],8 µg/mL
same,percent survival of S. aureus at 125 µg/mL,[8],16.7%
same,antibacterial activity against susceptible S. aureus (in words),[8],significant antibacterial activity
same,MIC90,[9],8 µg/mL
same,MIC90 MDRSA,[9],8 µg/mL
same,Ki,"[3]; Ki for targeted CAs, IX",90.8 µM
same,Ki,"[4]; Ki for targeted CAs, II",95.2 µM
same,MIC90 SA,[10]; 90% growth inhibition,8 µg/mL
same,MIC90,[10],8 µg/mL
same,percent survival at 125 µg/mL,[1],65.1%
same,effect on HCT-116 cell viability (in words),[11],no significant decrease in mammalian cell viability
same,"viability at 48 h, 10 µM",[12],> 100%
same,percent survival at 125 µg/mL,[2],> 100%
same,Ki,[5],> 100 µM
same,Ki,"[6]; Ki for targeted CAs, XII",91.7 µM
CN1c2c(OCC(=O)Nc3ccc([N+](=O)[O-])cc3)nn(CC(=O)Nc3ccc([N+](=O)[O-])cc3)c2-c2ccccc2S1(=O)=O [Compound 7i],Ki,[3]; [13],> 100 µM
same,Ki,[4]; [14],> 100 µM
same,Ki,[5]; [15],> 100 µM
same,Ki,[6]; [16],> 100 µM
